According to patent US7868135B2, “Compositions of lipopeptide antibiotic derivatives and methods of use thereof” (priority 2003, dated 2011):
Starred links: 1 amine or outer side, 2 acyl side, 3 side chain; linkers in the order of their positions; H or OH if unused. Positions of bridges follow the written chain, without caps; N, C: chain ends. Non-standard residues stand in square brackets, D forms with d. Residues, ends and D or L forms follow the SMILES beside them. ξ: configuration not given here. *: point of attachment. Benzoyl(4-OC10H21) = CCCCCCCCCCOc1ccc(C(=O)*)cc1; ξAbu(βξ-NH2) = CC(N[*:3])C(N[*:1])C(=O)[*:2]; Phac(3-amino) = O=C(Cc1cccc(N[*:1])c1)[*:2]; Pentadecanoyl = CCCCCCCCCCCCCCC(=O)*; X8 = O=C(/C=C/c1ccc(N[*:1])cc1)[*:2]; Bta = N[C@@H](Cc1csc2ccccc12)C(=O)O; Stearoyl = CCCCCCCCCCCCCCCCCC(=O)*; ξAsp(βξ-Me) = CC(C(=O)O)C(N)C(=O)O; Palmitoyl = CCCCCCCCCCCCCCCC(=O)*; X2 = O=C(CCc1ccc(N[*:1])cc1)[*:2]; X1 = O=C(Cc1ccc(N[*:1])cc1)[*:2]; Myristoyl = CCCCCCCCCCCCCC(=O)*; X13 = O=C(CCCCCCCCCCOc1ccccc1)*; ξAbu(3ξ-NH2) = CC(N)C(N)C(=O)O; Lauroyl = CCCCCCCCCCCC(=O)*; Decanoyl = CCCCCCCCCC(=O)*; 4Abz = Nc1ccc(C(=O)O)cc1; Octanoyl = CCCCCCCC(=O)*; Pip = O=C(O)[CH]1CCCCN1; ξD = NC(CC(=O)O)C(=O)O; ξPip = O=C(O)C1CCCCN1; ξV = CC(C)C(N)C(=O)O; ξP = O=C(O)C1CCCN1; OtBu = CC(C)(C)O*

Test system: Staphylococcus aureus (MSSA)
Details: 24 h
Method in brief: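 Broth microdilution MIC per NCCLS M7-A6 with doubling serial dilutions, in cation-adjusted Mueller-Hinton broth supplemented with 0.625 mM calcium.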

First: CCCCCCCCCCCC(=O)NCC(=O)NC(CC(=O)O)C(=O)NC1C(=O)N2CCCCC2C(=O)NC(C(C)C(=O)O)C(=O)NC(CC(=O)O)C(=O)NCC(=O)NC(CC(=O)O)C(=O)NCC(=O)NC(C(C)N)C(=O)NC(C(C)C)C(=O)N2CCCC2C(=O)NC1C (stereo not drawn) [Compound 103, C12-Gly-Amphomycin] (Lauroyl-GD[ξAbu(βξ-NH2)][Pip][ξAsp(βξ-Me)]DGDG[ξAbu(3ξ-NH2)]VP; lactam 3-C; configuration not given here)
Second: CCCCCCCCCCCCCC(=O)NCC(=O)NC(CC(=O)O)C(=O)NC1C(=O)N2CCCCC2C(=O)NC(C(C)C(=O)O)C(=O)NC(CC(=O)O)C(=O)NCC(=O)NC(CC(=O)O)C(=O)NCC(=O)NC(C(C)N)C(=O)NC(C(C)C)C(=O)N2CCCC2C(=O)NC1C (stereo not drawn) [Compound 105, C14-Gly-Amphomycin] (Myristoyl-GD[ξAbu(βξ-NH2)][Pip][ξAsp(βξ-Me)]DGDG[ξAbu(3ξ-NH2)]VP; lactam 3-C; configuration not given here)
The MIC of the first is higher: 8 to 16 µg/mL for the first, 0.5 µg/mL for the second.

Compared with `CCCCCCCC(=O)Nc1ccc(CC(=O)NC(CC(=O)O)C(=O)NC2C(=O)N3CCCCC3C(=O)NC(C(C)C(=O)O)C(=O)NC(CC(=O)O)C(=O)NCC(=O)NC(CC(=O)O)C(=O)NCC(=O)NC(C(C)N)C(=O)NC(C(C)C)C(=O)N3CCCC3C(=O)NC2C)cc1` (stereo not drawn) [Compound 104, C8-(p-Apa)-Amphomycin] (Octanoyl-[X1]D[ξAbu(βξ-NH2)][Pip][ξAsp(βξ-Me)]DGDG[ξAbu(3ξ-NH2)]VP; lactam 3-C; configuration not given here), `CCCCCCCCCC(=O)Nc1ccc(CC(=O)NC(CC(=O)O)C(=O)NC2C(=O)N3CCCCC3C(=O)NC(C(C)C(=O)O)C(=O)NC(CC(=O)O)C(=O)NCC(=O)NC(CC(=O)O)C(=O)NCC(=O)NC(C(C)N)C(=O)NC(C(C)C)C(=O)N3CCCC3C(=O)NC2C)cc1` (stereo not drawn) [Compound 122, CH3—(CH2)9-(p-Apa)-Amphomycin] (Decanoyl-[X1]D[ξAbu(βξ-NH2)][Pip][ξAsp(βξ-Me)]DGDG[ξAbu(3ξ-NH2)]VP; lactam 3-C; configuration not given here; N-terminus assumed) is 4-fold higher in MIC: 2 µg/mL for the first, 8 µg/mL for the second.

First: CCCCCCCCCCCCCCCC(=O)NCC(=O)NC(CC(=O)O)C(=O)NC1C(=O)N2CCCCC2C(=O)NC(C(C)C(=O)O)C(=O)NC(CC(=O)O)C(=O)NCC(=O)NC(CC(=O)O)C(=O)NCC(=O)NC(C(C)N)C(=O)NC(C(C)C)C(=O)N2CCCC2C(=O)NC1C (stereo not drawn) [Compound 106, C16-Gly-Amphomycin] (Palmitoyl-GD[ξAbu(βξ-NH2)][Pip][ξAsp(βξ-Me)]DGDG[ξAbu(3ξ-NH2)]VP; lactam 3-C; configuration not given here)
Second: CCCCCCCCCCCCCCCCCC(=O)NCC(=O)NC(CC(=O)O)C(=O)NC1C(=O)N2CCCCC2C(=O)NC(C(C)C(=O)O)C(=O)NC(CC(=O)O)C(=O)NCC(=O)NC(CC(=O)O)C(=O)NCC(=O)NC(C(C)N)C(=O)NC(C(C)C)C(=O)N2CCCC2C(=O)NC1C (stereo not drawn) [Compound 107, C18-Gly-Amphomycin] (Stearoyl-GD[ξAbu(βξ-NH2)][Pip][ξAsp(βξ-Me)]DGDG[ξAbu(3ξ-NH2)]VP; lactam 3-C; configuration not given here)
The MIC of the first is 4-fold lower: 0.5 µg/mL for the first, 2 µg/mL for the second.

Going from `CCCCCCCCCCOc1ccc(C(=O)NCC(=O)NC(CC(=O)O)C(=O)NC2C(=O)N3CCCCC3C(=O)NC(C(C)C(=O)O)C(=O)NC(CC(=O)O)C(=O)NCC(=O)NC(CC(=O)O)C(=O)NCC(=O)NC(C(C)N)C(=O)NC(C(C)C)C(=O)N3CCCC3C(=O)NC2C)cc1` (stereo not drawn) [Compound 110, CH3—(CH2)9—O-p-Ph-C(═O)-Gly-Amphomycin] ({Benzoyl(4-OC10H21)}-GD[ξAbu(βξ-NH2)][Pip][ξAsp(βξ-Me)]DGDG[ξAbu(3ξ-NH2)]VP; lactam 3-C; configuration not given here) to `CCCCCCCCCCCC(=O)Nc1ccc(C(=O)NCC(=O)NC(CC(=O)O)C(=O)NC2C(=O)N3CCCCC3C(=O)NC(C(C)C(=O)O)C(=O)NC(CC(=O)O)C(=O)NCC(=O)NC(CC(=O)O)C(=O)NCC(=O)NC(C(C)N)C(=O)NC(C(C)C)C(=O)N3CCCC3C(=O)NC2C)cc1` (stereo not drawn) [Compound 123, C12-PABA-Gly-Amphomycin] ({Lauroyl-4Abz}-GD[ξAbu(βξ-NH2)][Pip][ξAsp(βξ-Me)]DGDG[ξAbu(3ξ-NH2)]VP; lactam 3-C; configuration not given here), the MIC rises from 0.5 µg/mL to 1 µg/mL (2-fold).

First: CCCCCCCCCCCC(=O)Nc1cccc(CC(=O)NC(CC(=O)O)C(=O)NC2C(=O)N3CCCCC3C(=O)NC(C(C)C(=O)O)C(=O)NC(CC(=O)O)C(=O)NCC(=O)NC(CC(=O)O)C(=O)NCC(=O)NC(C(C)N)C(=O)NC(C(C)C)C(=O)N3CCCC3C(=O)NC2C)c1 (stereo not drawn) [Compound 111, C12-(M-Apa)-Amphomycin] (Lauroyl-[Phac(3-amino)]D[ξAbu(βξ-NH2)][Pip][ξAsp(βξ-Me)]DGDG[ξAbu(3ξ-NH2)]VP; lactam 3-C; configuration not given here)
Second: CCCCCCCCCC(=O)Nc1cccc(CC(=O)NC(CC(=O)O)C(=O)NC2C(=O)N3CCCCC3C(=O)NC(C(C)C(=O)O)C(=O)NC(CC(=O)O)C(=O)NCC(=O)NC(CC(=O)O)C(=O)NCC(=O)NC(C(C)N)C(=O)NC(C(C)C)C(=O)N3CCCC3C(=O)NC2C)c1 (stereo not drawn) [Compound 113, C10-(M-Apa)-Amphomycin] (Decanoyl-[Phac(3-amino)]D[ξAbu(βξ-NH2)][Pip][ξAsp(βξ-Me)]DGDG[ξAbu(3ξ-NH2)]VP; lactam 3-C; configuration not given here)
The MIC of the first is lower: 0.5 to 1 µg/mL for the first, 16 µg/mL for the second.

First: CCCCCCCCCCCCCCC(=O)N[C@@H](CC(=O)OC(C)(C)C)C(=O)NC(CC(=O)O)C(=O)NC1C(=O)N2CCCCC2C(=O)NC(C(C)C(=O)O)C(=O)NC(CC(=O)O)C(=O)NCC(=O)NC(CC(=O)O)C(=O)NCC(=O)NC(C(C)N)C(=O)NC(C(C)C)C(=O)N2CCCC2C(=O)NC1C (stereo partly drawn) [Compound 112, C15-[Asp-(OtBu)]-Amphomycin] (Pentadecanoyl-D(OtBu)[ξD][ξAbu(βξ-NH2)][ξPip][ξAsp(βξ-Me)][ξD]G[ξD]G[ξAbu(3ξ-NH2)][ξV][ξP]; lactam 3-C)
Second: CCCCCCCCCCCCCCC(=O)N[C@H](Cc1ccccc1)C(=O)NC(CC(=O)O)C(=O)NC1C(=O)N2CCCCC2C(=O)NC(C(C)C(=O)O)C(=O)NC(CC(=O)O)C(=O)NCC(=O)NC(CC(=O)O)C(=O)NCC(=O)NC(C(C)N)C(=O)NC(C(C)C)C(=O)N2CCCC2C(=O)NC1C (stereo partly drawn) [Compound 116, C15-(D-Phe)-Amphomycin] (Pentadecanoyl-[dF][ξD][ξAbu(βξ-NH2)][ξPip][ξAsp(βξ-Me)][ξD]G[ξD]G[ξAbu(3ξ-NH2)][ξV][ξP]; lactam 3-C)
The MIC of the first is 2-fold lower: 0.5 µg/mL for the first, 1 µg/mL for the second.

Going from `CCCCCCCCCCCCCCC(=O)N[C@H](C(=O)NC(CC(=O)O)C(=O)NC1C(=O)N2CCCCC2C(=O)NC(C(C)C(=O)O)C(=O)NC(CC(=O)O)C(=O)NCC(=O)NC(CC(=O)O)C(=O)NCC(=O)NC(C(C)N)C(=O)NC(C(C)C)C(=O)N2CCCC2C(=O)NC1C)c1ccccc1` (some centres unmarked) [Compound 115, C15-Phg-Amphomycin] to `CC(C)C1NC(=O)C(C(C)N)NC(=O)CNC(=O)C(CC(=O)O)NC(=O)CNC(=O)C(CC(=O)O)NC(=O)C(C(C)C(=O)O)NC(=O)C2CCCCN2C(=O)C(NC(=O)C(CC(=O)O)NC(=O)CNC(=O)CCCCCCCCCCOc2ccccc2)C(C)NC(=O)C2CCCN2C1=O` (stereo not drawn) [Compound 117, Ph-O—(CH2)11-Gly-Amphomycin] (X13-GD[ξAbu(βξ-NH2)][Pip][ξAsp(βξ-Me)]DGDG[ξAbu(3ξ-NH2)]VP; lactam 3-C; configuration not given here; N-terminus assumed), the MIC rises from 2 µg/mL to 8 µg/mL (4-fold).

First: CCCCCCCCCC(=O)N[C@@H](Cc1csc2ccccc12)C(=O)NC(CC(=O)O)C(=O)NC1C(=O)N2CCCCC2C(=O)NC(C(C)C(=O)O)C(=O)NC(CC(=O)O)C(=O)NCC(=O)NC(CC(=O)O)C(=O)NCC(=O)NC(C(C)N)C(=O)NC(C(C)C)C(=O)N2CCCC2C(=O)NC1C (stereo partly drawn) [Compound 118, C10-(L-BBTA)-Amphomycin] (Decanoyl-[Bta][ξD][ξAbu(βξ-NH2)][ξPip][ξAsp(βξ-Me)][ξD]G[ξD]G[ξAbu(3ξ-NH2)][ξV][ξP]; lactam 3-C)
Second: CCCCCCCCCCCC(=O)Nc1ccc(/C=C/C(=O)NC(CC(=O)O)C(=O)NC2C(=O)N3CCCCC3C(=O)NC(C(C)C(=O)O)C(=O)NC(CC(=O)O)C(=O)NCC(=O)NC(CC(=O)O)C(=O)NCC(=O)NC(C(C)N)C(=O)NC(C(C)C)C(=O)N3CCCC3C(=O)NC2C)cc1 (stereo not drawn) [Compound 120, C12-(p-Amino-Trans-Cinnamyl)-Amphomycin] (Lauroyl-[X8]D[ξAbu(βξ-NH2)][Pip][ξAsp(βξ-Me)]DGDG[ξAbu(3ξ-NH2)]VP; lactam 3-C; configuration not given here)
The MIC of the first is 4-fold higher: 2 µg/mL for the first, 0.5 µg/mL for the second.

Same assay, conditions: S. aureus (MSSA), CAMHB supplemented with 0.625 mM calcium, 24 hours at about 37° C.; a range = compound tested multiple times

With `CCCCCCCCCCCC(=O)Nc1ccc(CCC(=O)Nc2ccc(CCC(=O)NC(CC(=O)O)C(=O)NC3C(=O)N4CCCCC4C(=O)NC(C(C)C(=O)O)C(=O)NC(CC(=O)O)C(=O)NCC(=O)NC(CC(=O)O)C(=O)NCC(=O)NC(C(C)N)C(=O)NC(C(C)C)C(=O)N4CCCC4C(=O)NC3C)cc2)cc1` (stereo not drawn) [Compound 109, C12-(p-Aminophenylpropanoyl)2-Amphomycin] (Lauroyl-[X2][X2]D[ξAbu(βξ-NH2)][Pip][ξAsp(βξ-Me)]DGDG[ξAbu(3ξ-NH2)]VP; lactam 4-C; configuration not given here) the MIC was 2 µg/mL.

`CCCCCCCCCCCCCC(=O)NC(CC(=O)O)C(=O)NC1C(=O)N2CCCCC2C(=O)NC(C(C)C(=O)O)C(=O)NC(CC(=O)O)C(=O)NCC(=O)NC(CC(=O)O)C(=O)NCC(=O)NC(C(C)NC(=O)CNC(=O)[C@@H](N)CCCCN)C(=O)NC(C(C)C)C(=O)N2CCCC2C(=O)NC1C` (some centres unmarked) [Compound 125, C14-Amphomycin-9-Gly-Lys] was tested, and the MIC was 125/1-2 μg/mL.
With `CCCCCCCCCCCCCC(=O)NC(CC(=O)O)C(=O)NC1C(=O)N2CCCCC2C(=O)NC(C(C)C(=O)O)C(=O)NC(CC(=O)O)C(=O)NCC(=O)NC(CC(=O)O)C(=O)NCC(=O)NC(C(C)NC(=O)[C@@H](N)CCCN)C(=O)NC(C(C)C)C(=O)N2CCCC2C(=O)NC1C` (some centres unmarked) [Compound 127, C14-Amphomycin-9-Orn] the MIC was 127/4 μg/mL.
With `CCCCCCCCCCCCC(=O)NC(CC(=O)O)C(=O)NC1C(=O)N2CCCCC2C(=O)NC(C(C)C(=O)O)C(=O)NC(CC(=O)O)C(=O)NCC(=O)NC(CC(=O)O)C(=O)NCC(=O)NC(C(C)NC(=O)[C@@H](N)CCCN)C(=O)NC(C(C)C)C(=O)N2CCCC2C(=O)NC1C` (some centres unmarked) [Compound 134, C13-Amphomycin-9-Orn] the MIC was 134/32 μg/mL.
